Values after ≈ are worked out from the molar mass of the structure shown.
Experiments:
[1] = Antioxidant activity assessed as DPPH radical scavenging activity; type: functional
[2] = Antioxidant activity assessed as hydrogen peroxide scavenging activity; type: functional

C[C@@H]1O[C@@H](O[C@@H]2[C@@H](O)[C@H](OCCc3ccc(O)c(O)c3)O[C@H](CO)[C@H]2OC(=O)/C=C/c2ccc(O)c(O)c2)[C@H](O)[C@H](O)[C@H]1O [ACETOSIDE]
IC50 [1]: 0.09 µg/mL (≈ 0.144 µM)
IC50 [2]: 2.6 µg/mL (≈ 4.16 µM)

O=C1O[C@H]([C@@H](O)CO)C(O)=C1O [ASCORBIC ACID]
IC50 [1]: 0.05 µg/mL (≈ 0.284 µM)
IC50 [2]: 4.1 µg/mL (≈ 23.3 µM)

C[C@@H]1O[C@@H](O[C@@H]2[C@@H](O)[C@H](OCCc3ccc(O)c(O)c3)O[C@H](COC(=O)/C=C/c3ccc(O)c(O)c3)[C@H]2O)[C@H](O)[C@H](O)[C@H]1O [ISOACTEOSIDE]
IC50 [1]: 0.16 µg/mL (≈ 0.256 µM)
IC50 [2]: 3 µg/mL (≈ 4.8 µM)

— ChEMBL document CHEMBL5131430, “Free radical scavenging activities of verbascoside and isoverbascoside from the leaves of Odontonema strictum (Acanthaceae)” (Bioorg Med Chem Lett, 2022)
